Test [1] relates to Dd2 (CQ^R) P. falciparum strain. Description: In vitro fluorescence (Sybr Green I) growth inhibition assay, Dd2 strain. The class given is cell-based. To be noted: Plasmodium falciparum, DD2; Table 13; growth inhibition; read-out: IC50 (nM) Dd2 (CQ^R). The source says: One exemplary method for measuring inhibitory effects of RCQ compound in vitro has been reported by Smilkstein et al. (Antimicrob. Agents Chemother., 48(5):1803-1806, 2004). This method employs fluorescent detection of the level of parasitemia in cultured red blood cells and can be automated for high-throughput screening of antimalarial RCQs. This exemplary method allows the inhibitory agent (such as a RCQ) to be in contact with the parasite for an entire developmental cycle without purine starvation, which is in contrast to the traditional ^3H-hypoxanthine method (Desjardins et al., Antimicrob. Agents Chemother., 16(6):710-718, 1979). Briefly, to perform the Smilkstein et al. method, an initial parasitemia of approximately 0.2% is attained by adding uninfected red blood cells (RBCs) to a stock culture of Plasmodium sp.-infected RBCs. […] After a period of incubation (such as about 72 hours), a sufficient amount (e.g., 100 μL) of a fluorescent DNA binding dye-detergent mixture (e.g., Sybr Green I dye-detergent mixture) to lyse cells and bind to DNA is added to the reactions. Because uninfected RBCs have no DNA, only parasite DNA (in infected RBCs) is available for binding to the fluorescent dye (e.g., Sybr Green I). Samples are then incubated in the dark for a period of time (e.g., one hour), followed by measurement of levels of fluorescence. For Sybr Green I, excitation and emission wavelength are 485 and 530 nm, respectively. Fluorescence readings, which represent the amount of parasite DNA in the sample, can be plotted against the Log [drug] and fit to a curve by nonlinear regression to obtain the IC50 value for the tested compound.
An in vitro fluorescence assay for determining IC50 of antimalarial drugs was performed as previously described by Smilkstein et al. (Antimicrob. Agents Chemother., 48(5):1803-1806, 2004). This relatively low-cost procedure can be automated for high-throughput screening of the antimalarial activities of RCQs described herein. Advantageous, this method also allows the tested agent (e.g, a RCQ) to be in contact with the parasite for an entire developmental cycle without purine starvation (which occurs with the commonly used ^3H-hypoxanthine method; see, e.g., Desjardins et al., Antimicrob. Agents Chemother., 16, (6):[…], 1979).
Briefly, an initial parasitemia of approximately 0.2% was attained by addition of uninfected red blood cells to a stock culture of cells infected with Dd2 (CQ^R) or D6 (CQ^S) P. falciparum strains. A 10 mM RCQ_02 solution (in DMSO) was prepared. RCQ_02 (at a final concentration from 10^−11 to 10^−4 M) and infected red blood cells (at a final concentration of 2% (v/v)) were mixed in 100 μL samples in individual wells of a 96-well plate. Each sample was prepared in triplicate. A triplicate set of reactions containing CQ (instead of RCQ_02) was included as a control. After a 72 hour incubation period, Sybr Green I dye-detergent mixture (100 μL) was added to each reaction. The samples were further incubated for an hour in the dark, and then placed in a 96-well fluorescence plate reader (Gemini-EM, […]) and analyzed with excitation and emission wavelength bands at 485 and 530 nm, respectively. Fluorescence readings were plotted against the Log [drug], and curve fitting performed by nonlinear regression to find the IC50 value.

Test [2] in a line: Heme binding by UV-VIS spectrophotometric titration (association constant). To be noted: pH 5.7; heme assumed dimeric (μ-oxo). The source says:
Optionally, heme binding of RCQ compounds can be determined by any method known in the art, including, for example, spectrophotometric methods, like UV-VIS spectroscopy or NMR spectroscopy. Methods of measuring heme binding to a variety of molecules using the UV-VIS spectrum have been described (see, e.g., Xu et al., J. Inorg. Biochem., 86 (2-3):617-625, 2001; Xu et al., Antimicrob. Agents Chemother., 46(1):144-150, 2002). Generally, a heme-binding compound (such as a disclosed RCQ) is mixed in increasing concentration with heme (or a heme model compound, such as porphyrin or metalloporphyrin) and the absorbance spectrum is measured from the ultraviolet region well into the visible region (from about 300 nm to about 750 nm). This spectral range includes the so-called Soret and Q-band regions that arise from porphyrin or metalloporphyrin absorbance. Upon interaction between a heme-binding compound and heme (or a heme model compound, such as porphyrin or metalloporphyrin), decreased absorbance in the Soret region is observed. […]
In particular examples, the formation of heme-RCQ complexes can be determined by UV-VIS spectrophotometric titration, using a variety of commercially available spectrophotometers (such as a Varian-Cary 3E spectrophotometer). […] Optionally, pH can be monitored throughout the procedure to ensure that it remains unchanged. […]

For `CN(CCCNc1ccnc2cc(Cl)ccc12)CCCN1c2ccccc2CCc2ccccc21` [RCQ_02, N′-(7-Chloro-quinolin-4-yl)-N-[3-(10,11-dihydro-dibenzo[b,f]azepin-5-yl)-propyl]-N-methyl-propane-1,3-diamine], the IC50 in test [1] was 5.3 nM. Further, the heme2.RCQ_02 association constant entry in test [2] is on record as “approximately 7.5×10^5 M^−1”.

(Values after US9493420B2, “Quinoline derivatives and uses thereof” (Portland State University, priority 2005, dated 2016).)
